How the values were obtained:
Hep 3B/T2 cancer cells = experiment: SCID mice injected with Hep 3B/T2 cancer cells, fed fermented product for 35 days; format: in vivo; details: positive control group
Experimental: SCID mice with 18 to 22 g body weight were classified into 5 groups and 10 mice per group. […] The tumor size of the SCID mice was measured every 3 to 4 days, and the weight of the heart, liver, spleen, lung, and kidney of the SCID mice was measured when the experiment was finished.

[1] = Anti-oxidation capacity relative to vitamin E; details: vitamin E defined to 100; medium with increasing share of black bean powder
Text: The same procedure carried out in Example 2 was repeated except that the content of the Panax notoginseng medium was changed. The content of the Panax notoginseng medium included 4 types: ¼ Panax notoginseng powder and ¾ black powder, ½ Panax notoginseng powder and 1/2 black powder, ¾ Panax notoginseng powder and ¼ black powder, and all Panax notoginseng powder.

Row | Heart weight (Hep 3B/T2 cancer cells) [mg] | Kidney weight (Hep 3B/T2 cancer cells) [mg] | Liver weight (Hep 3B/T2 cancer cells) [mg] | Lung weight (Hep 3B/T2 cancer cells) [mg] | Spleen weight (Hep 3B/T2 cancer cells) [mg] | Compound | Tumor weight (Hep 3B/T2 cancer cells) [mg] | anti-oxidation capacity [1]
1 | 143.2 ± 14.6 | 328.2 ± 26.2 | 1171.3 ± 103.0 | 215.8 ± 23 | 118.7 ± 35.6 | O=c1[nH]cc(F)c(=O)[nH]1 [5-FU, fluorouracil] | 376.1 ± 232.9 | 
2 |  |  |  |  |  | vitamin E |  | 100
